# Test results as given in patent US5643912A, “Pyrazinoic acid esters as anti-mycobacterium avium agents” (The Research Foundation of State University of NY, priority 1996, dated 1997).
# Tests used:
# [1] = system: M. avium 101; assay: Broth dilution MIC vs M. avium 101; assay type: cell-based; details: Mycobacterium avium, 7H10 broth, pH 5.8
# [2] = system: M. kansasii SWK; assay: Broth dilution MIC vs M. kansasii SWK; assay type: cell-based; details: Mycobacterium kansasii, 7H10 broth, pH 5.8
# [3] = system: M. tuberculosis 102; assay: Broth dilution MIC vs M. tuberculosis 102; assay type: cell-based; details: Mycobacterium tuberculosis, 102, pH 5.8, M. tuberculosis 102, 7H10 broth, read-out: MIC
# [4] = system: M. tuberculosis BUR; assay: Broth dilution MIC vs M. tuberculosis BUR; assay type: cell-based; details: Mycobacterium tuberculosis, M. tuberculosis BUR (footnote b), 7H10 broth, pH 5.8
# [5] = system: Myobacterium tuberculosis H37RV; details: cited from earlier work
# [6] = system: Mycobacterium (M.) tuberculosis; details: in words; cited from earlier work
# [7] = system: M. bovis or other mycobacteria; details: in words; cited from earlier work
# [8] = system: M. avium; details: Heifets et al. 1986; cited from earlier work
# [9] = in words; cited from earlier work
# [10] = system: a number of bacteria including M. tuberculosis; details: Suzuki et al. 1958; cited from earlier work
Compound,MIC [1] [µg/mL],MIC [2] [µg/mL],MIC [3] [µg/mL],other results
C=CCOC(=O)c1cnc(Cl)cn1 [Example 33],64,< 1,1,–
CC(C)COC(=O)c1cnc(Cl)cn1 [Example 34],64,< 1,2,–
CC(C)(C)OC(=O)c1cnc(Cl)cn1 [Example 35],128,< 1,2,–
CCCCCCCCCC(C)OC(=O)c1cnc(Cl)cn1 (centres unmarked) [Example 36],16,0.25,0.25,–
CCCCCCCC(C)(CCCC)OC(=O)c1cnc(Cl)cn1 (centres unmarked) [Example 37],> 64,16,8,–
CCCCCCCCC(C)(CCCC)OC(=O)c1cnc(Cl)cn1 (centres unmarked) [Example 38],> 64,> 16,16,–
COC(=O)c1cnc(I)cn1 [Example 39],256,8,16,–
CCCCCC(C)(CCCC)OC(=O)c1cnc(Cl)cn1 (centres unmarked) [Example 40],> 256,16,4,–
O=C(OCC(F)(F)F)c1cnccn1 [Example 41],–,100,–,MIC [4]: 25 µg/mL
C=CCOC(=O)c1cnccn1 [Example 42],–,3,–,MIC [4]: 6.3 µg/mL
CCCOC(=O)c1cnccn1 [Example 43],–,3,–,MIC [4]: 3 µg/mL
CCCCCC(C)(CCC)OC(=O)c1cnc(Cl)cn1 (centres unmarked) [Example 44],> 256,4,4,–
CCCCCC(C)(CCCCC)OC(=O)c1cnc(Cl)cn1 [Example 45],> 64,8,8,–
CCCCCCC(C)(CCCCC)OC(=O)c1cnc(Cl)cn1 (centres unmarked) [Example 46],> 64,8,2,–
CCCCCCCC(C)(CCCCC)OC(=O)c1cnc(Cl)cn1 (centres unmarked) [Example 47],> 64,–,2,–
CCCCCCCCCC(C)(CCCCCCC)OC(=O)c1cnc(Cl)cn1 (centres unmarked) [Example 48],> 64,–,0.5,–
CC(C)COC(=O)c1cnccn1 [Example 49],256,16,2,–

Compound,MIC [1] [µg/mL],MIC [2] [µg/mL],MIC [3] [µg/mL],other results
CCC(C)OC(=O)c1cnccn1 (centres unmarked) [Example 50],256,16,8,–
Cc1cc(C(C)(C)C)c(OC(=O)c2cnccn2)c(C(C)(C)C)c1 [Example 51],> 256,> 16,128,–
O=C(OCc1ccccc1)c1cnccn1 [Example 52],64,1,1,–
C/C=C/COC(=O)c1cnccn1 [Example 54],–,–,2,–
Cc1cc(C)c(OC(=O)c2cnccn2)c(C)c1 [Example 55],64,2,1,–
CC1CCC(C(C)C)C(OC(=O)c2cnccn2)C1 (centres unmarked) [Example 56],–,–,2,–
O=C(OC(C(F)(F)F)C(F)(F)F)c1cnccn1 [Example 60],–,–,–,MIC [4]: 100 µg/mL
O=C(OCCCl)c1cnccn1 [Example 62],–,25,–,MIC [4]: 6.3 µg/mL
O=C(Oc1ccc([N+](=O)[O-])cc1)c1cnccn1 [Example 63],–,25,–,MIC [4]: 12.5 µg/mL
Cc1ccc(OC(=O)c2cnccn2)cc1 [Example 64],–,100,100,–
CC(C)(C)c1ccc(OC(=O)c2cnccn2)cc1 [Example 65],–,25,25,–
O=C(Oc1c(F)c(F)c(F)c(F)c1F)c1cnccn1 [Example 66],–,25,–,–
O=C(Oc1ccc(-c2ccccc2)cc1)c1cnccn1 [Example 67],–,25,–,–
"CN(C)CCOC(=O)c1cnccn1 [N,N-dimethyl-2-aminoethyl pyrazinoate]",–,–,–,in vitro activity against M. tuberculosis H37RV [5]: active
NC(=O)c1cnccn1 [pyrazinamide],–,–,–,activity against M. tuberculosis [6]: only active against Mycobacterium (M.) tuberculosis; activity against M. bovis or other mycobacteria [7]: not active; activity against M. avium [8]: inactive; hepatotoxicity [9]: hepatotoxicity
pyrazinoate ester of chloramphenicol,–,–,–,activity against bacteria including M. tuberculosis [10]: inactive
